Consider 14 molecules from US11331369B2, “Endoparasitic depsipeptides” (Zoetis Services LLC, priority 2017, dated 2022).

In the assay the test system is microfilariae of Dirofilaria immitis. Kind of assay: Dirofilaria immitis, Microfilaria (DiMF) In vitro Assay. Format: cell-based. The conditions noted are these: 72 h, read-out: DiMF Minimum Effective Dose (MED), approximately 72 hours incubation, microfilariae assessed for survival or paralysis.

Consider `CC(C)C[C@H]1C(=O)O[C@H](Cc2cccc(Cn3cc(O)cn3)c2)C(=O)N(C)[C@@H](CC(C)C)C(=O)O[C@H](C)C(=O)N(C)[C@@H](CC(C)C)C(=O)O[C@H](Cc2cccc(Cn3cc(O)cn3)c2)C(=O)N(C)[C@@H](CC(C)C)C(=O)O[C@H](C)C(=O)N1C` [Example 4-17, (3S,6R,9S,12R,15S,18R,21S,24R)-6,18-bis(3-((4-hydroxy-1H-pyrazol-1-yl)methyl)benzyl)-3,9,15,21-tetraisobutyl-4,10,12,16,22,24-hexamethyl-1,7,13,19-tetraoxa-4,10,16,22-tetraazacyclotetracosan-2,5,8,11,14,17,20,23-octaone], for which the minimal effective concentration is 0.01 to 0.1 µM. The value for `CC(C)C[C@H]1C(=O)O[C@H](Cc2cccc(Cn3cc([N+](=O)[O-])cn3)c2)C(=O)N(C)[C@@H](CC(C)C)C(=O)O[C@H](C)C(=O)N(C)[C@@H](CC(C)C)C(=O)O[C@H](Cc2ccccc2)C(=O)N(C)[C@@H](CC(C)C)C(=O)O[C@H](C)C(=O)N1C` [Example 5-2, (3S,6R,9S,12R,15S,18R,21S,24R)-6-benzyl-3,9,15,21-tetraisobutyl-4,10,12,16,22,24-hexamethyl-18-(3-((4-nitro-1H-pyrazol-1-yl)methyl)benzyl)-1,7,13,19-tetraoxa-4,10,16,22-tetraazacyclotetracosan-2,5,8, 11,14,17,20,23-octaone] was 0.001 to 0.01 µM; that for `CC(C)C[C@H]1C(=O)O[C@H](Cc2ccc(Cn3ccc(-c4cccnc4)n3)cc2)C(=O)N(C)[C@@H](CC(C)C)C(=O)O[C@H](C)C(=O)N(C)[C@@H](CC(C)C)C(=O)O[C@H](Cc2ccc(Cn3ccc(-c4cccnc4)n3)cc2)C(=O)N(C)[C@@H](CC(C)C)C(=O)O[C@H](C)C(=O)N1C` [Example 1b-139, (3S,6R,9S,12R,15S,18R,21S,24R)-3,9,15,21-tetraisobutyl-4,6,10,16,18,22-hexamethyl-12,24-bis(4-((3-(pyridin-3-yl)-1H-pyrazol-1-yl)methyl)benzyl)-1,7,13,19-tetraoxa-4,10,16,22-tetraazacyclotetracosan-2,5,8,11,14,17,20,23-octaone] was 0.01 to 0.1 µM; that for `CCc1cnn(Cc2ccc(C[C@H]3OC(=O)[C@H](CC(C)C)N(C)C(=O)[C@@H](C)OC(=O)[C@H](CC(C)C)N(C)C(=O)[C@@H](Cc4ccccc4)OC(=O)[C@H](CC(C)C)N(C)C(=O)[C@@H](C)OC(=O)[C@H](CC(C)C)N(C)C3=O)cc2)c1` [Example 2-9, (3S,6R,9S,12R,15S,18R,21S,24R)-6-benzyl-18-[[4-[(4-ethylpyrazol-1-yl)methyl]phenyl]methyl]-3,9,15,21-tetraisobutyl-4,10,12,16,22,24-hexamethyl-1,7,13,19-tetraoxa-4,10,16,22-tetrazacyclotetracosane-2,5,8,11,14,17,20,23-octaone] was 0.01 to 0.1 µM.

As for `CCc1nn(Cc2ccc(C[C@H]3OC(=O)[C@H](CC(C)C)N(C)C(=O)[C@@H](C)OC(=O)[C@H](CC(C)C)N(C)C(=O)[C@@H](Cc4ccccc4)OC(=O)[C@H](CC(C)C)N(C)C(=O)[C@@H](C)OC(=O)[C@H](CC(C)C)N(C)C3=O)cc2)c(CC)c1N` [Example 2-86, (3S,6R,9S,12R,15S,18R,21S,24R)-6-(4-((4-amino-3,5-diethyl-1H-pyrazol-1-yl)methyl)benzyl)-18-benzyl-3,9,15,21-tetraisobutyl-4,10,12,16,22,24-hexamethyl-1,7,13,19-tetraoxa-4,10,16,22-tetraazacyclotetracosan-2,5,8,11,14,17,20,23-octaone], the minimal effective concentration fell in the range of 0.01 to 0.1 µM. For the molecule `CC(C)C#Cc1cnn(Cc2ccc(C[C@H]3OC(=O)[C@H](CC(C)C)N(C)C(=O)[C@@H](C)OC(=O)[C@H](CC(C)C)N(C)C(=O)[C@@H](Cc4ccccc4)OC(=O)[C@H](CC(C)C)N(C)C(=O)[C@@H](C)OC(=O)[C@H](CC(C)C)N(C)C3=O)cc2)c1` [Example 2-70, (3S,6R,9S,12R,15S,18R,21S,24R)-6-benzyl-3,9,15,21-tetraisobutyl-4,10,12,16,22,24-hexamethyl-18-(4-((4-(3-methylbut-1-yn-1-yl)-1H-pyrazol-1-yl)methyl)benzyl)-1,7,13,19-tetraoxa-4,10,16,22-tetraazacyclotetracosan-2,5,8,11,14,17,20,23-octaone], the minimal effective concentration was 0.01 to 0.1 µM. For `CC(C)C[C@H]1C(=O)O[C@H](Cc2cccc(Cn3ccnc3C3CC3)c2)C(=O)N(C)[C@@H](CC(C)C)C(=O)O[C@H](C)C(=O)N(C)[C@@H](CC(C)C)C(=O)O[C@H](Cc2ccc(Cn3ccnc3C3CC3)cc2)C(=O)N(C)[C@@H](CC(C)C)C(=O)O[C@H](C)C(=O)N1C` [Example 7-7, (3S,6R,9S,12R,15S,18R,21S,24R)-6-[[3-[(2-cyclopropylimidazol-1-yl)methyl]phenyl]methyl]-18-[[4-[(2-cyclopropylimidazol-1-yl)methyl]phenyl]methyl]-3,9,15,21-tetraisobutyl-4,10,12,16,22,24-hexamethyl-1,7,13,19-tetraoxa-4,10,16,22-tetrazacyclotetracosane-2,5,8,11,14,17,20,23-octaone], the minimal effective concentration was in the range of 0.01 to 0.1 µM.

Regarding `CC(=O)c1cnn(Cc2ccc(C[C@H]3OC(=O)[C@H](CC(C)C)N(C)C(=O)[C@@H](C)OC(=O)[C@H](CC(C)C)N(C)C(=O)[C@@H](Cc4ccccc4)OC(=O)[C@H](CC(C)C)N(C)C(=O)[C@@H](C)OC(=O)[C@H](CC(C)C)N(C)C3=O)cc2)c1` [Example 2-13, (3S,6R,9S,12R,15S,18R,21S,24R)-6-(4-((4-acetyl-1H-pyrazol-1-yl)methyl)benzyl)-18-benzyl-3,9,15,21-tetraisobutyl-4,10,12,16,22,24-hexamethyl-1,7,13,19-tetraoxa-4,10,16,22-tetraazacyclotetracosan-2,5,8,11,14,17,20,23-octaone], the minimal effective concentration fell in the range of 0.01 to 0.1 µM. Consider `CCc1cnn(Cc2ccc(C[C@H]3OC(=O)[C@H](CC(C)C)N(C)C(=O)[C@@H](C)OC(=O)[C@H](CC(C)C)N(C)C(=O)[C@@H](Cc4ccc(Cn5cc(CC)cn5)cc4)OC(=O)[C@H](CC(C)C)N(C)C(=O)[C@@H](C)OC(=O)[C@H](CC(C)C)N(C)C3=O)cc2)c1` [Example 1b-31, (3S,6R,9S,12R,15S,18R,21S,24R)-6,18-bis[[4-[(4-ethylpyrazol-1-yl)methyl]phenyl]methyl]-3,9,15,21-tetraisobutyl-4, 10,12,16,22,24-hexamethyl-1,7,13,19-tetraoxa-4,10,16,22-tetrazacyclotetracosane-2,5,8,11,14,17,20,23-octaone], for which the minimal effective concentration was 0.01 to 0.1 µM. On to `Cc1nn(Cc2ccc(C[C@H]3OC(=O)[C@H](CC(C)C)N(C)C(=O)[C@@H](C)OC(=O)[C@H](CC(C)C)N(C)C(=O)[C@@H](Cc4ccccc4)OC(=O)[C@H](CC(C)C)N(C)C(=O)[C@@H](C)OC(=O)[C@H](CC(C)C)N(C)C3=O)cc2)c(C)c1Br` [Example 2-17, (3S,6R,9S,12R,15S,18R,21S,24R)-6-benzyl-18-(4-((4-bromo-3,5-dimethyl-1H-pyrazol-1-yl)methyl)benzyl)-3,9,15,21-tetraisobutyl-4,10,12,16,22,24-hexamethyl-1,7,13,19-tetraoxa-4,10,16,22-tetraazacyclotetracosan-2,5,8,11,14,17,20,23-octaone], for which the minimal effective concentration fell in the range of 0.01 to 0.1 µM. The value for `CC(C)C[C@H]1C(=O)O[C@H](Cc2ccc(Cn3nc(CO)cc3C3CC3)cc2)C(=O)N(C)[C@@H](CC(C)C)C(=O)O[C@H](C)C(=O)N(C)[C@@H](CC(C)C)C(=O)O[C@H](Cc2ccc(Cn3nc(CO)cc3C3CC3)cc2)C(=O)N(C)[C@@H](CC(C)C)C(=O)O[C@H](C)C(=O)N1C` [Example 1b-8, (3S,6R,9S,12R,15S,18R,21S,24R)-6,18-bis(4-((5-cyclopropyl-3-(hydroxymethyl)-1H-pyrazol-1-yl)methyl)benzyl)-3,9,15,21-tetraisobutyl-4,10,12,16,22,24-hexamethyl-1,7,13,19-tetraoxa-4,10,16,22-tetraazacyclotetracosan-2,5,8,11,14,17,20,23-octaone] was 0.001 to 0.01 µM; that for `Cc1nn(Cc2ccc(C[C@H]3OC(=O)[C@H](CC(C)C)N(C)C(=O)[C@@H](C)OC(=O)[C@H](CC(C)C)N(C)C(=O)[C@@H](Cc4ccccc4)OC(=O)[C@H](CC(C)C)N(C)C(=O)[C@@H](C)OC(=O)[C@H](CC(C)C)N(C)C3=O)cc2)c(C)c1C` [Example 2-11, (3S,6R,9S,12R,15S,18R,21S,24R)-6-benzyl-3,9,15,21-tetraisobutyl-4,10,12,16,22,24-hexamethyl-18-(4-((3,4,5-trimethyl-1H-pyrazol-1-yl)methyl)benzyl)-1,7,13,19-tetraoxa-4,10,16,22-tetraazacyclotetracosan-2,5,8,11,14,17,20,23-octaone] was 0.01 to 0.1 µM. Turning to `CC(C)C[C@H]1C(=O)O[C@H](Cc2ccc(Cn3cc(-c4ccc(F)cc4)cn3)cc2)C(=O)N(C)[C@@H](CC(C)C)C(=O)O[C@H](C)C(=O)N(C)[C@@H](CC(C)C)C(=O)O[C@H](Cc2ccccc2)C(=O)N(C)[C@@H](CC(C)C)C(=O)O[C@H](C)C(=O)N1C` [Example 2-5, (3S,6R,9S,12R,15S,18R,21S,24R)-6-benzyl-18-[[4-[[4-(4-fluorophenyl)pyrazol-1-yl]methyl]phenyl]methyl]-3,9,15,21-tetraisobutyl-4,10,12,16,22,24-hexamethyl-1,7,13,19-tetraoxa-4,10,16,22-tetrazacyclotetracosane-2,5,8,11,14,17,20,23-octaone], the minimal effective concentration is 0.01 to 0.1 µM. Under `CC(C)C[C@H]1C(=O)O[C@H](Cc2ccc(Cn3ccc(-c4ccccn4)n3)cc2)C(=O)N(C)[C@@H](CC(C)C)C(=O)O[C@H](C)C(=O)N(C)[C@@H](CC(C)C)C(=O)O[C@H](Cc2ccc(Cn3ccc(-c4ccccn4)n3)cc2)C(=O)N(C)[C@@H](CC(C)C)C(=O)O[C@H](C)C(=O)N1C` [Example 1b-120, (3S,6R,9S,12R,15S,18R,21S,24R)-3,9,15,21-tetraisobutyl-4,6,10,16,18,22-hexamethyl-12,24-bis(4-((3-(pyridin-2-yl)-1H-pyrazol-1-yl)methyl)benzyl)-1,7,13,19-tetraoxa-4,10,16,22-tetraazacyclotetracosan-2,5,8,11,14,17,20,23-octaone] stands 0.01 to 0.1 µM.
